The numbers were not newly measured in patent publication US11865247B2, “Inhalers and related methods” (Norton (Waterford) Limited, priority 2017, dated 2024), which cites them from elsewhere.

For the molecule `FCC(F)(F)F` [HFA134a, 1,1,1,2-tetrafluoroethane], the surface tension entry (as liquid at 25° C.) is recorded as “about 8 mN/m”. Where the note is “at 20° C.”, the vapor pressure is reported as 572 kpa.
